Reference: US20240285670A1, “THERAPEUTIC TREATMENT OF TUMORS BY BLOCKING THE HEME SYNTHESIS-EXPORT AXIS” (Università degli Studi di Torino, priority 2021, published 2024)

Experiments:
Assay type in all cases: cell-based, human
FLVCR1a = experiment: qRT-PCR analysis of FLVCR1a expression in SHSY5Y cells; conditions: 5 mM ALA for 15 hours vs non-treated
Method: (§1) (A) Heme content in SHSY5Y cells non-treated (NT) or treated with 5 mM ALA for 15 hours. Values are expressed as pmol heme/mg protein. Data represent mean±SEM, n=3; *=P<0.05. (B, C) qRT-PCR analysis of the expression of ALAS1 (B) and FLVCR1a (C) in SHSY5Y cells non-treated (NT) or treated with 5 mM ALA for 15 hours. Transcript abundance, normalized to beta-actin mRNA expression, is expressed as a fold increase over a calibrator sample. Data represent mean±SEM, n=4. For statistical analyses, an unpaired Student's t-test was used; *p<0.05. (D) qRT-PCR analysis of the expression of ALAS1 in SKCO1 cells untreated (NT) or treated with 5 mM ALA for 24 hours. Transcript abundance, normalized to beta-actin mRNA expression, is expressed as a fold increase over a calibrator sample. Data represent mean±SEM, n=5. […] Band intensities were measured by densitometry and normalized to beta-actin expression. […] (F) Proliferation of SHSY5Y cells assessed by crystal violet staining at different time points (starting from the day after plating, named “day 0”). Treatment with 5 mM ALA occurred at “day 0” and cells were monitored until the end of the experiment without medium refresh. […] (G) SKCO1 cells viability measured by the CellTiter-Fluor Cell Viability Assay (Promega, Madison, WI USA, catalog n°G6080) at different time points, starting from the day after plating (named “day 0”), as a readout of cell proliferation. […]

SKCO1 cells = SKCO1 cells viability (CellTiter-Fluor) as readout of proliferation; conditions: 5 mM ALA at day 0, no medium refresh
Method: as §1

Caco2 cells = experiment: TCA cycle enzymes activities in Caco2 cells; conditions: FLVCR1a knockdown vs scramble shRNA Caco2 cells
Text: TCA cycle flux is reported in the centre of the figure and expressed as pmol CO2/h/mg protein. Data represent mean±SEM, n=3. For statistical analyses, an unpaired Student's t-test was used. **=p<0.01. Moreover, TCA cycle enzymes activities are reported in boxes and expressed as mU/mg mitochondrial proteins. Data represent mean±SEM, n=3. For statistical analyses, an unpaired Student's t-test was used; *=p<0.05, ***=p<0.001. […] Results are expressed as pmol CO2/h/mg protein. Data represent mean±SEM, n=3. For statistical analyses, an unpaired Student's t-test was used; *=p<0.05, **=p<0.01. […]
The enzymatic activities of citrate synthase, α-ketoglutarate dehydrogenase, succinate dehydrogenase and malate dehydrogenase were measured on 10 μg mitochondrial proteins using the Citrate Synthase Assay Kit (Sigma Aldrich, St. Louis, MO USA, catalog n° MAK193), Alpha Ketoglutarate (alpha KG) Assay Kit (Abcam, Cambridge, UK, catalog n° ab83431), Malate Dehydrogenase Assay Kit (Sigma Aldrich, St. Louis, MO USA, catalog n° MAK196), Succinate Dehydrogenase Activity Colorimetric Assay Kit (BioVision, Milpitas, CA USA, catalog n° K660), as per manufacturer's instructions. Results were expressed as mU/mg mitochondrial proteins.

| Compound | FLVCR1a transcript levels (FLVCR1a) | cell proliferation (cell viability) (SKCO1 cells) | TCA cycle enzymes activity (citrate synthase, α-ketoglutarate dehydrogenase, succinate dehydrogenase, malate dehydrogenase) (Caco2 cells) |
| --- | --- | --- | --- |
| Cl.NCC(=O)CCC(=O)O [5-ALA, 5-Aminolevulinic acid hydrochloride] | reduced | Reduced proliferation |  |
| FLVCR1a shRNA: shRNA specifically down-regulating FLVCR1a without targeting FLVCR1b; pLKO.1 lentiviral clone TRCN0000059599, antisense SEQ ID No.: 2 (antisense TTGCTAATGATGCTGTACTGG; sense CCAGTACAGCATCATTAGCAA) |  |  | enhanced activity |
